Test results reported in US20080050319A1, “Benzylidene-Alpha-Dicarbonyl Compounds as Novel Uv Absorbers” (SYMRISE GMBH & CO. KG, priority 2004, published 2008).
Blank lines part the entries; values can stand above or below the compound they belong to.

Columns and labels:
Type in all cases: physicochemical
[1] = Photostability test with Suntester, HPLC analysis of UV filter mixtures
Description: Photostability tests were carried out with a Suntester from Heräus. The irradiation intensity in these was 80 W/m^2, based on the UV range of 290-400 nm. The irradiation time was 4 h in total, the photodegradation of the UV filters being measured by HPLC analyses after an irradiation time of 2 and 4 h. The irradiations of the UV filter mixtures were carried out in an isopropyl myristate solution. The percentage values relate to the value measured without irradiation (decrease in the concentration).

[2] = Solubility in cosmetic oils; conditions: per cent by weight
From the text: Examples of Solubility (In Per Cent By Weight)
(data in per cent by weight)

[3] = UV absorption properties (extinction); design: unit not given here
From the text: EXAMPLES FOR THE PREPARATION AND THE ABSORPTION PROPERTIES

[4] = 2 h, Experiment 1: 3% OMC + 1% DMDBM + 2% A1 in isopropyl myristate
[5] = 2 h, Experiment 2: 3% OMC + 1% DMDBM + 2% A2 in isopropyl myristate
[6] = 2 h, Experiment 3: 3% OMC + 1% DMDBM + 2% A3 in isopropyl myristate
[7] = 2 h, Experiment 4: 3% OMC + 1% DMDBM + 2% B1 in isopropyl myristate
[8] = 2 h, Experiment 5: 3% OMC + 1% DMDBM + 2% B2 in isopropyl myristate
[9] = 2 h, Experiment 6: 3% OMC + 1% DMDBM + 2% B3 in isopropyl myristate
[10] = 2 h irradiation, 80 W/m2, reference mixture 3% OMC + 1% DMDBM in isopropyl myristate
[11] = 4 h, Experiment 1: 3% OMC + 1% DMDBM + 2% A1 in isopropyl myristate
[12] = 4 h, Experiment 2: 3% OMC + 1% DMDBM + 2% A2 in isopropyl myristate
[13] = 4 h, Experiment 3: 3% OMC + 1% DMDBM + 2% A3 in isopropyl myristate
[14] = 4 h, Experiment 4: 3% OMC + 1% DMDBM + 2% B1 in isopropyl myristate
[15] = 4 h, Experiment 5: 3% OMC + 1% DMDBM + 2% B2 in isopropyl myristate
[16] = 4 h, Experiment 6: 3% OMC + 1% DMDBM + 2% B3 in isopropyl myristate
[17] = 4 h irradiation, 80 W/m2, reference mixture 3% OMC + 1% DMDBM in isopropyl myristate

SMILES: COc1ccc(C(=O)CC(=O)c2ccc(C(C)(C)C)cc2)cc1 [DMDBM, 4-dimethylethyl-4′-methoxydibenzoylmethane]
photodegradation (decrease in the concentration) [1, 4]: 24% | photodegradation (decrease in the concentration) [1, 5]: 20% | photodegradation (decrease in the concentration) [1, 6]: 20% | photodegradation (decrease in the concentration) [1, 7]: 27% | photodegradation (decrease in the concentration) [1, 8]: 27% | photodegradation (decrease in the concentration) [1, 9]: 27% | photodegradation (decrease in the concentration) [1, 10]: 67% | photodegradation (decrease in the concentration) [1, 11]: 38% | photodegradation (decrease in the concentration) [1, 12]: 28% | photodegradation (decrease in the concentration) [1, 13]: 28% | photodegradation (decrease in the concentration) [1, 14]: 48% | photodegradation (decrease in the concentration) [1, 15]: 60% | photodegradation (decrease in the concentration) [1, 16]: 52% | photodegradation (decrease in the concentration) [1, 17]: 87%

SMILES: COc1ccc(/C=C(/C(=O)OC(C)C)C(=O)c2ccccc2)cc1 [Example 1]
Solubility in Isopropyl myristate [2]: >10% | Solubility in Miglyol -812 [2]: >10% | Solubility in Witconol-TN [2]: >10% | Extinction ([3]; at 316 nm): 640

SMILES: CCCOC(=O)/C(=C/c1ccc(OC)cc1)C(=O)c1ccccc1 [Example 2]
Solubility in Isopropyl myristate [2]: >10% | Solubility in Miglyol -812 [2]: >10% | Solubility in Witconol-TN [2]: >10% | Extinction ([3]; at 316 nm): 660

SMILES: COc1ccc(/C=C(/C(=O)OCC(C)C)C(=O)c2ccccc2)cc1 [Example 3]
Solubility in Isopropyl myristate [2]: >20% | Solubility in Miglyol -812 [2]: >20% | Solubility in Witconol-TN [2]: >20% | Extinction ([3]; at 316 nm): 640

SMILES: CCCCOC(=O)/C(=C/c1ccc(OC)cc1)C(=O)c1ccccc1 [Example 4]
photodegradation (decrease in the concentration) [1, 4]: 0% | photodegradation (decrease in the concentration) [1, 11]: 0% | photostability (in words) ([1]; in mixture with OMC and DMDBM, compared with the comparison measurement): outstanding photostability | Solubility in Isopropyl myristate [2]: >20% | Solubility in Miglyol -812 [2]: >20% | Solubility in Witconol-TN [2]: >20% | Extinction ([3]; at 316 nm): 660

SMILES: COc1ccc(/C=C(/C(=O)OCCC(C)C)C(=O)c2ccccc2)cc1 [Example 5]
Solubility in Isopropyl myristate [2]: >20% | Solubility in Miglyol -812 [2]: >20% | Solubility in Witconol-TN [2]: >20% | Extinction ([3]; at 316 nm): 630

SMILES: CCOC(=O)/C(=C/c1ccc(OC)cc1)C(=O)C1CCCCC1 [Example 6]
Extinction ([3]; at 316 nm): 700

SMILES: CCOC(=O)/C(=C/c1ccc(C)cc1)C(=O)c1ccccc1 [Example 7]
Extinction ([3]; at 292 nm): 690

SMILES: COc1ccc(/C=C(/C(C)=O)C(=O)c2ccccc2)cc1 [Example 8]
Extinction ([3]; at 323 nm, pure Z isomer): 816

SMILES: CCOC(=O)/C(=C/c1ccc(OC)cc1)C(=O)c1ccc(C)cc1 [Example 9]
Extinction ([3]; at 316 nm): 660

SMILES: CCCCC(CC)COC(=O)C=Cc1ccc(OC)cc1 (stereo not drawn) [OMC, octyl methoxycinnamate]
photodegradation (decrease in the concentration) [1, 4]: 12% | photodegradation (decrease in the concentration) [1, 5]: 12% | photodegradation (decrease in the concentration) [1, 6]: 11% | photodegradation (decrease in the concentration) [1, 7]: 11% | photodegradation (decrease in the concentration) [1, 8]: 15% | photodegradation (decrease in the concentration) [1, 9]: 13% | photodegradation (decrease in the concentration) [1, 10]: 58% | photodegradation (decrease in the concentration) [1, 11]: 17% | photodegradation (decrease in the concentration) [1, 12]: 17% | photodegradation (decrease in the concentration) [1, 13]: 17% | photodegradation (decrease in the concentration) [1, 14]: 18% | photodegradation (decrease in the concentration) [1, 15]: 30% | photodegradation (decrease in the concentration) [1, 16]: 25% | photodegradation (decrease in the concentration) [1, 17]: 76%

Other lines, results leading:

photodegradation (decrease in the concentration) [1, 6]: 0% | photodegradation (decrease in the concentration) [1, 13]: 0%
SMILES: CCOC(=O)/C(=C/c1ccc(OC)cc1)C(=O)c1ccccc1 [Example A2]

photodegradation (decrease in the concentration) [1, 5]: 3% | photodegradation (decrease in the concentration) [1, 12]: 3% | Solubility in Isopropyl myristate [2]: <10% | Solubility in Miglyol -812 [2]: <10% | Solubility in Witconol-TN [2]: <10%
SMILES: COc1ccc(/C=C(/C(C)=O)C(=O)c2ccccc2)cc1 [Example A2]

Solubility in Isopropyl myristate [2]: >20% | Solubility in Miglyol -812 [2]: >20% | Solubility in Witconol-TN [2]: >20%
SMILES: CCOC(=O)/C(=C/c1ccc(OC)cc1)C(=O)c1ccccc1 [Example A3]

photodegradation (decrease in the concentration) [1, 8]: 2% | photodegradation (decrease in the concentration) [1, 15]: 7%
SMILES: CCOC(=O)C(=Cc1ccc(OC)cc1)C(=O)OCC [Example B2]

photodegradation (decrease in the concentration) [1, 9]: 0% | photodegradation (decrease in the concentration) [1, 16]: 8%
SMILES: COc1ccc(C=C(C(C)=O)C(C)=O)cc1 [Example B3]
